Source: patent publication US20080009418A1, “Selective Inhibitors” (Alchemia LTD., priority 2004, published 2008)

How the values were obtained:
Human δ-opioid (DOP) = molecular target: T1, Human δ-opioid (DOP) (Homo sapiens, UniProt P41143); experiment: Radioligand binding, human δ-opioid (DOP) membranes, FlashPlate, [3H]-Bremazocine; settings: compound at 10 μM, [3H]-Bremazocine; for A1: inhibition of radioligand binding: FlashPlate
T1 construct: purchased Perkin Elmer Biosignal
Summary of the method: (§1)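 Cloned human receptor membranes were coated onto FlashPlate wells and incubated with radioligand and compound (added from a 0.5 mM DMSO daughter plate) for 1 hour at room temperature in the dark. Scintillation counting gave percent inhibition, with DMSO defining total and reference ligand defining non-specific binding.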

Human κ-Opioid (KOP) = molecular target: T2, Human κ-Opioid (KOP) (Homo sapiens, UniProt P41145); experiment: Radioligand binding, human κ-opioid (KOP) membranes, filtration, [3H]-Diprenorphine; settings: compound at 10 μM, [3H]-Diprenorphine; for A2: inhibition of radioligand binding: filtration
T2 construct: purchased Perkin Elmer Biosignal
T2 sequence (P41145 whole entry): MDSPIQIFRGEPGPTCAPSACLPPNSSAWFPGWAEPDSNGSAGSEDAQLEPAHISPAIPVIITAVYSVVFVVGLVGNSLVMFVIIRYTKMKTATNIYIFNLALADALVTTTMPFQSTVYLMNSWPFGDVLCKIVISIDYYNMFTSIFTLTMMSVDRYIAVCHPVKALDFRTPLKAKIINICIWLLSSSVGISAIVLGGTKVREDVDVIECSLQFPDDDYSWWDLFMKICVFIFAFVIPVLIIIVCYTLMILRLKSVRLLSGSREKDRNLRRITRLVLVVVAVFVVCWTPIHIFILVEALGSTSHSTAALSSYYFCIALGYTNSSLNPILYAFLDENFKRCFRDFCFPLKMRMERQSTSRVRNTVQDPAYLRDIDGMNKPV
Summary of the method: (§2)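 Filtration binding on cloned human receptor membranes (1 Unit/well), [125I]-Substance P for NK1 and [3H]-Diprenorphine for KOP, 1 h at room temperature. Filters PEI-presoaked, washed with cold 50 mM Tris-HCl pH 7.4, counted by scintillation; percent inhibition calculated, reference ligand defining non-specific binding.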

Human Melanocortin (MC3) = molecular target: T3, Human Melanocortin (MC3) (Homo sapiens, UniProt P41968); experiment: Radioligand binding, human melanocortin MC3 membranes, FlashPlate, [125I]-NDP-αMSH; settings: compound at 10 μM, [125I]-NDP-αMSH; for A3: inhibition of radioligand binding: FlashPlate
T3 construct: purchased Perkin Elmer Biosignal
T3 sequence (P41968 whole entry): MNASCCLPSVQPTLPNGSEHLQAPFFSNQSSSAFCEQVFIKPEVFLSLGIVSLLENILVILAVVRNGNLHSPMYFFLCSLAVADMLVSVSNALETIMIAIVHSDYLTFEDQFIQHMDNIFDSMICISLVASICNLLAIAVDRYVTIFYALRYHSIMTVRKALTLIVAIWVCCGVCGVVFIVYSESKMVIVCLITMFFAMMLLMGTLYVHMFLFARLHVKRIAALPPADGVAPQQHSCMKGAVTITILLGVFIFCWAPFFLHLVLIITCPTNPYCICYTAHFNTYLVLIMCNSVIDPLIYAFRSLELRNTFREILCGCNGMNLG
Summary of the method: as §1

Human Melanocortin (MC4) = molecular target: T4, Human Melanocortin (MC4) (Homo sapiens, UniProt P32245); experiment: Radioligand binding, human melanocortin MC4 membranes, FlashPlate, [125I]-NDP-αMSH; settings: compound at 10 μM, [125I]-NDP-αMSH; for A4: inhibition of radioligand binding: FlashPlate
T4 construct: purchased Perkin Elmer Biosignal
T4 sequence (P32245 whole entry): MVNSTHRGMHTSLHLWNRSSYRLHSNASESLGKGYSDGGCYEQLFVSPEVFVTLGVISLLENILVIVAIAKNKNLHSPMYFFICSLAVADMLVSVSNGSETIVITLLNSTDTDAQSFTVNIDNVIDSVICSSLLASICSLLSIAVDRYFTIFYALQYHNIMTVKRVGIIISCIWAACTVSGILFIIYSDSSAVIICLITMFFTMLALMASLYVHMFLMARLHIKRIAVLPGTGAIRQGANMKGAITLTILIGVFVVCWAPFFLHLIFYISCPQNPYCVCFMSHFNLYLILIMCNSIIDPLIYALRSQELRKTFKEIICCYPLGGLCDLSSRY
Summary of the method: as §1

Human melanocortin (MC5) = molecular target: T5, Human melanocortin (MC5) (Homo sapiens, UniProt P33032); experiment: Radioligand binding, human melanocortin MC5 membranes, FlashPlate, [125I]-NDP-αMSH; settings: compound at 10 μM, [125I]-NDP-αMSH; for A5: inhibition of radioligand binding: FlashPlate
T5 construct: purchased Perkin Elmer Biosignal
T5 sequence (P33032 whole entry): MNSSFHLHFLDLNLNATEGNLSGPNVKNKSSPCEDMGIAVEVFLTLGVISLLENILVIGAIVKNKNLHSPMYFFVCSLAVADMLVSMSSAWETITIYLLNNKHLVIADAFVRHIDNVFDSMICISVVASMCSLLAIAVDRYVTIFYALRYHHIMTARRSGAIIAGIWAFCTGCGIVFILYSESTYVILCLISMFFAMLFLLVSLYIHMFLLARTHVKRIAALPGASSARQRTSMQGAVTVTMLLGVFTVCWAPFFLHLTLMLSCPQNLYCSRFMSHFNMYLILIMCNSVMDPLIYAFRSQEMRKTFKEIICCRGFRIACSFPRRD
Summary of the method: as §1

[1] = molecular target: T6, Human melanin-concentrating hormone (MCH1) (Homo sapiens, UniProt Q99705); experiment: Radioligand binding, human melanin-concentrating hormone MCH1 membranes, FlashPlate, [125I]-S36057; settings: compound at 10 μM; for A6: inhibition of radioligand binding: [125I]-S36057, FlashPlate
T6 construct: purchased Perkin Elmer Biosignal
T6 sequence (Q99705 whole entry): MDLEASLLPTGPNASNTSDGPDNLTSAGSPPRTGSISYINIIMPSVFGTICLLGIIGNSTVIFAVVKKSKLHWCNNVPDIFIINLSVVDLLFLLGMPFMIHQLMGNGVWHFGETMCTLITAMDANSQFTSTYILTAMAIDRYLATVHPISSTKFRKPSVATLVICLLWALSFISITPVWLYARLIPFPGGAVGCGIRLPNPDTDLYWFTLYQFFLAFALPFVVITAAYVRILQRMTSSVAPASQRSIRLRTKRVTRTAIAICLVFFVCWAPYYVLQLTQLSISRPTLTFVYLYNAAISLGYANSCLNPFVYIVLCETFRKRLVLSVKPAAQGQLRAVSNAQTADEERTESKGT
Summary of the method: as §1

Human μ-opioid (MOP) = molecular target: T7, Human μ-opioid (MOP) (Homo sapiens, UniProt P35372); experiment: Radioligand binding, human μ-opioid (MOP) membranes, FlashPlate, [3H]-Naloxone; settings: compound at 10 μM, [3H]-Naloxone; for A7: inhibition of radioligand binding: FlashPlate
T7 construct: purchased Perkin Elmer Biosignal
T7 sequence (P35372 whole entry): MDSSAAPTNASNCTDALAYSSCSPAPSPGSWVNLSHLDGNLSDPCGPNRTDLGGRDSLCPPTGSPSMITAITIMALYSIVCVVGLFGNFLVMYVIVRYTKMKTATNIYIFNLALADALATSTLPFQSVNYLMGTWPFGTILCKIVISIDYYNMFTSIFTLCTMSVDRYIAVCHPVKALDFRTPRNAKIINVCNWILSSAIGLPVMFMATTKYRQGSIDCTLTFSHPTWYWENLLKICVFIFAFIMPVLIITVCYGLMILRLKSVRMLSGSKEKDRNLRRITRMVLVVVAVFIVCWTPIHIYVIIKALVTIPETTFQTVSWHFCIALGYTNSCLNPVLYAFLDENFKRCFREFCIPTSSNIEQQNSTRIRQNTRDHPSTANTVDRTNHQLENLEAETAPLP
Summary of the method: as §1

Human neurokinin (NK1) = molecular target: T8, Human neurokinin (NK1) (Homo sapiens, UniProt P25103); experiment: Radioligand binding, human neurokinin NK1 membranes, filtration, [125I]-Substance P; settings: compound at 10 μM, [125I]-Substance P; for A8: inhibition of radioligand binding: filtration
T8 construct: purchased Perkin Elmer Biosignal
T8 sequence (P25103 whole entry): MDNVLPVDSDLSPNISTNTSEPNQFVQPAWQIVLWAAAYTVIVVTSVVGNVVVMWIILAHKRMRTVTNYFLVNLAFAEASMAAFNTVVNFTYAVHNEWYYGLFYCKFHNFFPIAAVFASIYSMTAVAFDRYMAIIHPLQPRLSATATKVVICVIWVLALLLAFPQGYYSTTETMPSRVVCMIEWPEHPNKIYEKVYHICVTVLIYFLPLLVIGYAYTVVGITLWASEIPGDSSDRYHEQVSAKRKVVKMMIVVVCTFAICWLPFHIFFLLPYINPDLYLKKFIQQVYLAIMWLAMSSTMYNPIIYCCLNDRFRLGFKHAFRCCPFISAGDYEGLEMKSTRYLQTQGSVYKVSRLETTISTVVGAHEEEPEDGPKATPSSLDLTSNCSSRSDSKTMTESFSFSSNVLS
Summary of the method: as §2

[2] = molecular target: T9, Human neuropeptide Y (NPY-Y1) (Homo sapiens, UniProt P25929); experiment: Radioligand binding, human neuropeptide Y NPY-Y1 membranes, FlashPlate, [125I]-PYY; settings: compound at 10 μM, [125I]-PYY; for A9: inhibition of radioligand binding: FlashPlate
T9 construct: purchased Perkin Elmer Biosignal
T9 sequence (P25929 1-384): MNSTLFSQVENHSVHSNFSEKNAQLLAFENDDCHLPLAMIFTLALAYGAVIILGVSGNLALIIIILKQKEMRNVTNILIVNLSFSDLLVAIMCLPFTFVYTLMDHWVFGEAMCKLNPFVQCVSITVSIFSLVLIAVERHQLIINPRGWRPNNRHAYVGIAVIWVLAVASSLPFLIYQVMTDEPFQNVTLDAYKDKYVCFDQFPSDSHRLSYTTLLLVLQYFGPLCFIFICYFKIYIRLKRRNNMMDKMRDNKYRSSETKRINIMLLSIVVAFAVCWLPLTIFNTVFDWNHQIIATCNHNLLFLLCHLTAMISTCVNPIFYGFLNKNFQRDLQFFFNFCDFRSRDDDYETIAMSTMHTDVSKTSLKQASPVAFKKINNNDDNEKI
Summary of the method: as §1

Human opioid (ORL1) = molecular target: T10, Human opioid (ORL1) (Homo sapiens, UniProt P41146); experiment: Radioligand binding, human opioid ORL1 membranes, FlashPlate, [125I]-Nociceptin; settings: compound at 10 μM, [125I]-Nociceptin; for A10: inhibition of radioligand binding: FlashPlate
T10 construct: purchased Perkin Elmer Biosignal
T10 sequence (P41146 whole entry): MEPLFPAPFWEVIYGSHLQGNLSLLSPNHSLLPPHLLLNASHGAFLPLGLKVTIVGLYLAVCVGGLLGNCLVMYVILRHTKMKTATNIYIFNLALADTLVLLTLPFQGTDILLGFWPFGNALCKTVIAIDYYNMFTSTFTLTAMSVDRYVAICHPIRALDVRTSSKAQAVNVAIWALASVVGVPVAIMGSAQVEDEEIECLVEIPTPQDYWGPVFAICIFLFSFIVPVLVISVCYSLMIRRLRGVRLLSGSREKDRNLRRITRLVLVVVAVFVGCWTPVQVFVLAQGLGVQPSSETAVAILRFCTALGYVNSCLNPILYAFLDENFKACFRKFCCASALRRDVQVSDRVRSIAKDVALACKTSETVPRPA
Summary of the method: as §1

Mouse urotensin (mUR2) = molecular target: T11, Mouse urotensin (mUR2) (Mus musculus, UniProt Q8VIH9); experiment: Radioligand binding, mouse urotensin mUR2 membranes, FlashPlate, [125I]-Urotensin II; settings: compound at 10 μM, [125I]-Urotensin II; for A11: inhibition of radioligand binding: FlashPlate
T11 construct: purchased Perkin Elmer Biosignal
T11 sequence (Q8VIH9 1-385): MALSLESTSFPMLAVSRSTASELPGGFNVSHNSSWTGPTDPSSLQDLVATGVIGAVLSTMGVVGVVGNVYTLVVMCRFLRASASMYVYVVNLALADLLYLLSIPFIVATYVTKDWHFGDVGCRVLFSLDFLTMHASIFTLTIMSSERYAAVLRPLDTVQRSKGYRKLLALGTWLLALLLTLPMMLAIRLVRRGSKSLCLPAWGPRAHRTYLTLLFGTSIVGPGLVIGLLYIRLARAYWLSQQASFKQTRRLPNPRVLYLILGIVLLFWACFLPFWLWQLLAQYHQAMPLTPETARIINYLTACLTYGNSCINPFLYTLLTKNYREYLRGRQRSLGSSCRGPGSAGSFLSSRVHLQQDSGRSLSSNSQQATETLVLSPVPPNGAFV
Summary of the method: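 Cloned mouse urotensin (mUR2) receptor membranes from Perkin Elmer Biosignal were immobilized in FlashPlate microplates using a proprietary coating. Each well got 19.5 μl buffer, then 0.5 μl of DMSO, reference ligand, or compound. Adding 5 μl of [125I]-Urotensin II, diluted to 5× final concentration in binding buffer, started binding. Plates were sealed with TopSeal-A and incubated 1 hour at room temperature in the dark. Wells were counted for 30 seconds each on a TopCount after a 60-second delay, and percentage inhibition was calculated.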

T1 sequence (P41143 whole entry): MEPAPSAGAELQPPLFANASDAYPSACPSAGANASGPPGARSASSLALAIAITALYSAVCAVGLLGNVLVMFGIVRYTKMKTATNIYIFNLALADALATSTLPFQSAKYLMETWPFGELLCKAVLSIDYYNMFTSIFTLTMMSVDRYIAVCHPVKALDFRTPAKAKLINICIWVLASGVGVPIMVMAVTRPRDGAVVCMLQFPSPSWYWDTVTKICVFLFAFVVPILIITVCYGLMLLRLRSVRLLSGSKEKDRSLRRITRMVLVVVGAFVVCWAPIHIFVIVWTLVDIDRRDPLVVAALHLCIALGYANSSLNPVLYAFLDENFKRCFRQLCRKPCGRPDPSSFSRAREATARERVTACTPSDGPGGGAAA

SMILES | A1: inhibition of radioligand binding (Human δ-opioid (DOP)) | A2: inhibition of radioligand binding (Human κ-Opioid (KOP)) | A3: inhibition of radioligand binding (Human Melanocortin (MC3)) | A4: inhibition of radioligand binding (Human Melanocortin (MC4)) | A5: inhibition of radioligand binding (Human melanocortin (MC5)) | A6: inhibition of radioligand binding [1] | A7: inhibition of radioligand binding (Human μ-opioid (MOP)) | A8: inhibition of radioligand binding (Human neurokinin (NK1)) | A9: inhibition of radioligand binding [2] | A1 radioligand binding, percentage inhibition (Human δ-opioid (DOP)) | A2 radioligand binding, percentage inhibition (Human κ-Opioid (KOP)) | A3 radioligand binding, percentage inhibition (Human Melanocortin (MC3)) | A4 radioligand binding, percentage inhibition (Human Melanocortin (MC4)) | A5 radioligand binding, percentage inhibition (Human melanocortin (MC5)) | A6 radioligand binding, percentage inhibition ([1]; [125I]-S36057) | A7 radioligand binding, percentage inhibition (Human μ-opioid (MOP)) | A8 radioligand binding, percentage inhibition (Human neurokinin (NK1)) | A9 radioligand binding, percentage inhibition [2] | A10 radioligand binding, percentage inhibition (Human opioid (ORL1)) | A11 radioligand binding, percentage inhibition (Mouse urotensin (mUR2)) | other results
NCCCC(=O)NC1C(OCc2ccc(Cl)cc2)OC(COCc2ccc(Cl)cc2)C(O)C1OCc1ccc2ccccc2c1 (single isomer, unassigned) [compound 500] |  |  |  |  |  |  |  |  |  |  |  |  |  |  |  |  |  |  |  |  | A1: inhibition of radioligand binding, human δ-opioid (DOP) (Human δ-opioid (DOP)): − (“−” indicates less than 50% inhibition at 10 μM); A2: inhibition of radioligand binding, human κ-opioid (KOP) (Human κ-Opioid (KOP)): − (“−” indicates less than 50% inhibition at 10 μM); A3: inhibition of radioligand binding, human melanocortin (MC3) (Human Melanocortin (MC3)): + (“+” indicates greater than 50% inhibition at 10 μM); A4: inhibition of radioligand binding, human melanocortin (MC4) (Human Melanocortin (MC4)): + (“+” indicates greater than 50% inhibition at 10 μM); A5: inhibition of radioligand binding, human melanocortin (MC5) (Human melanocortin (MC5)): + (“+” indicates greater than 50% inhibition at 10 μM); A6: inhibition of radioligand binding, human melanin-concentrating hormone (MCH1) ([1]; [125I]-S36057, 10 µM): + (“+” indicates greater than 50% inhibition at 10 μM); A7: inhibition of radioligand binding, human μ-opioid (MOP) (Human μ-opioid (MOP); 10 µM): + (“+” indicates greater than 50% inhibition at 10 μM); A8: inhibition of radioligand binding, human neurokinin (NK1) (Human neurokinin (NK1)): + (“+” indicates greater than 50% inhibition at 10 μM); A9: inhibition of radioligand binding, human neuropeptide Y (NPY-Y1) [2]: − (“−” indicates less than 50% inhibition at 10 μM); A10: inhibition of radioligand binding, human opioid (ORL1) (Human opioid (ORL1)): + (“+” indicates greater than 50% inhibition at 10 μM); A11: inhibition of radioligand binding, mouse urotensin (mUR2) (Mouse urotensin (mUR2)): − (“−” indicates less than 50% inhibition at 10 μM)
COCC1OC(OCc2ccc3ccccc3c2)C(NC(=O)CCN)C(OCc2ccc(Cl)cc2)C1O (stereo not drawn) [compound 237] | − (“−” indicates less than 50% inhibition at 10 μM) | − (“−” indicates less than 50% inhibition at 10 μM) | − (“−” indicates less than 50% inhibition at 10 μM) | − (“−” indicates less than 50% inhibition at 10 μM) | + (“+” indicates greater than 50% inhibition at 10 μM) | − (“−” indicates less than 50% inhibition at 10 μM) | − (“−” indicates less than 50% inhibition at 10 μM) | + (“+” indicates greater than 50% inhibition at 10 μM) | − (“−” indicates less than 50% inhibition at 10 μM) |  |  |  |  |  |  |  |  |  |  |  | A10: inhibition of radioligand binding (Human opioid (ORL1)): − (“−” indicates less than 50% inhibition at 10 μM); A11: inhibition of radioligand binding (Mouse urotensin (mUR2)): − (“−” indicates less than 50% inhibition at 10 μM)
CO[C@H]1[C@H](O)[C@@H](COCc2ccc3ccccc3c2)OC(OCCc2ccccc2)[C@@H]1NC(=O)CCNC(=N)N (stereo partly drawn) [compound 114] |  |  |  |  |  |  |  |  |  | − (“−” indicates less than 50% inhibition at 10 μM) | + (“+” indicates greater than 50% inhibition at 10 μM) | − (“−” indicates less than 50% inhibition at 10 μM) | + (“+” indicates greater than 50% inhibition at 10 μM) | + (“+” indicates greater than 50% inhibition at 10 μM) | − (“−” indicates less than 50% inhibition at 10 μM) | − (“−” indicates less than 50% inhibition at 10 μM) | + (“+” indicates greater than 50% inhibition at 10 μM) | − (“−” indicates less than 50% inhibition at 10 μM) | − (“−” indicates less than 50% inhibition at 10 μM) | − (“−” indicates less than 50% inhibition at 10 μM) | 
COCC1OC(OCc2ccccc2)C(NC(=O)CCCNC(=N)N)C(OCc2ccc(Cl)cc2)C1O (stereo not drawn) [compound 181] |  |  |  |  |  |  |  |  |  | − (“−” indicates less than 50% inhibition at 10 μM) | − (“−” indicates less than 50% inhibition at 10 μM) | − (“−” indicates less than 50% inhibition at 10 μM) | + (“+” indicates greater than 50% inhibition at 10 μM) | + (“+” indicates greater than 50% inhibition at 10 μM) | + (“+” indicates greater than 50% inhibition at 10 μM) | − (“−” indicates less than 50% inhibition at 10 μM) | + (“+” indicates greater than 50% inhibition at 10 μM) | − (“−” indicates less than 50% inhibition at 10 μM) | − (“−” indicates less than 50% inhibition at 10 μM) | − (“−” indicates less than 50% inhibition at 10 μM) | 
CSC1OC(COCc2ccccc2)C(O)C(OCc2ccc(Cl)cc2)C1NC(=O)CCNC(=N)N (stereo not drawn) [compound 267] | − (“−” indicates less than 50% inhibition at 10 μM) | − (“−” indicates less than 50% inhibition at 10 μM) | − (“−” indicates less than 50% inhibition at 10 μM) | + (“+” indicates greater than 50% inhibition at 10 μM) | − (“−” indicates less than 50% inhibition at 10 μM) | − (“−” indicates less than 50% inhibition at 10 μM) | − (“−” indicates less than 50% inhibition at 10 μM) | + (“+” indicates greater than 50% inhibition at 10 μM) | − (“−” indicates less than 50% inhibition at 10 μM) |  |  |  |  |  |  |  |  |  |  |  | A10: inhibition of radioligand binding (Human opioid (ORL1)): − (“−” indicates less than 50% inhibition at 10 μM); A11: inhibition of radioligand binding (Mouse urotensin (mUR2)): − (“−” indicates less than 50% inhibition at 10 μM)
CO[C@H]1[C@H](O)[C@@H](COCc2ccc(Cl)cc2)OC(OCc2cccc(O)c2)[C@@H]1NC(=O)CCCNC(=N)N (stereo partly drawn) [compound 170] |  |  |  |  |  |  |  |  |  | − (“−” indicates less than 50% inhibition at 10 μM) | − (“−” indicates less than 50% inhibition at 10 μM) | − (“−” indicates less than 50% inhibition at 10 μM) | − (“−” indicates less than 50% inhibition at 10 μM) | + (“+” indicates greater than 50% inhibition at 10 μM) | − (“−” indicates less than 50% inhibition at 10 μM) | + (“+” indicates greater than 50% inhibition at 10 μM) | + (“+” indicates greater than 50% inhibition at 10 μM) | − (“−” indicates less than 50% inhibition at 10 μM) | − (“−” indicates less than 50% inhibition at 10 μM) | − (“−” indicates less than 50% inhibition at 10 μM) | 
